Assay results as given in US20250051327A1, “MALT-1 MODULATORS” (EXSCIENTIA AI LIMITED, priority 2020, published 2025).

Experiments:
[1] = target: Recombinant human MALT-1 (amino acids 340-824) (Homo sapiens (Human), UniProt Q9UDY8); assay: MALT-1 inhibition assay (fluorogenic substrate Ac-LRSR-Rh110-DP); format: biochemical; conditions: recombinant human MALT-1, substrate Ac-LRSR-Rh110-DP
How it was run: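 MALT-1 at 3 nM final was reacted with 10 μM Ac-LRSR-Rh110-DP, with substrate addition starting the reaction. Incubation ran 60 minutes at 25° C in the dark. Percent inhibition from fluorescence across doses was fitted to a 4-parameter logistic to give IC50.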

[2] = system: IL-2 secretion by human effector memory T cells (TEM); assay: Effector memory T cells IL-2 release assay; format: cell-based; conditions: T-cell; human CD4+ effector memory T cells, CD3/CD28 bead stimulation, 24 h; read-out: CD4TC IL2 IC50
How it was run: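 Human CD4+ effector memory T cells from healthy-donor buffy coats were stimulated with anti-CD3/CD28 Dynabeads and exposed to 10 semi-log compound doses (0.1% DMSO) for 24 h at 37 °C. Supernatant IL-2 was measured by HTRF, and IC50 came from a 4-parameter logistic fit to maximal IL-2. Viability was checked by flow cytometry.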

Sequence of Recombinant human MALT-1 (amino acids 340-824) (Q9UDY8 340-824): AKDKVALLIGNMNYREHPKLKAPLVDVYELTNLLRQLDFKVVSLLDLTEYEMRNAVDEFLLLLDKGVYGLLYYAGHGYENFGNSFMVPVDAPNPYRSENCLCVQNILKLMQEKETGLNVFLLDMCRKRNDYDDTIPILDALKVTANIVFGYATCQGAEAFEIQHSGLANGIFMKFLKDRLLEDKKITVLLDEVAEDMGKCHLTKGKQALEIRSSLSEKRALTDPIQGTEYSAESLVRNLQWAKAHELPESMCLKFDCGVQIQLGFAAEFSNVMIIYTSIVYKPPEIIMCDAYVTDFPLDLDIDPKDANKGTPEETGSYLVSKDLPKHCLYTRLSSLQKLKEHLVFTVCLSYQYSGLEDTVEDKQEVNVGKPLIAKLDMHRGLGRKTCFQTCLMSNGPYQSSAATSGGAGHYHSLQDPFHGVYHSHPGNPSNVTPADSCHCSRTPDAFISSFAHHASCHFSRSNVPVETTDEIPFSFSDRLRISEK

| SMILES | IC50 [1] | IC50 [2] |
| --- | --- | --- |
| Cc1scnc1C(=O)N(C)[C@@H](c1ccc(N2CCCc3c2cnc2cc(Cl)nn32)cc1)C(F)(F)F [CPD0019353, N-[(1S)-1-(4-{4-chloro-2,3,7,10-tetraazatricyclo[7.4.0.0^2,6]trideca-1(9),3,5,7-tetraen-10-yl}phenyl)-2,2,2-trifluoroethyl]-N,5-dimethyl-1,3-thiazole-4-carboxamide] | 582 nM | 271 nM |
| CN(C(=O)C1CC1)[C@@H](c1ccc(N2CCCc3c2cnc2cc(Cl)nn32)cc1)C(F)(F)F [CPD0019354, N-[(1S)-1-(4-{4-chloro-2,3,7,10-tetraazatricyclo[7.4.0.0^2,6]trideca-1(9),3,5,7-tetraen-10-yl}phenyl)-2,2,2-trifluoroethyl]-N-methylcyclopropanecarboxamide] | 164 nM | 83 nM |
| CN(C(=O)C1CC[S+]([O-])CC1)[C@@H](c1ccc(N2CCCc3c2cnc2cc(Cl)nn32)cc1)C(F)(F)F (stereo partly drawn) [CPD0019481] | 76 nM | 86 nM |
| CN(C(=O)C1CCSCC1)[C@@H](c1ccc(N2CCCc3c2cnc2cc(Cl)nn32)cc1)C(F)(F)F [CPD0019482, N-[(1S)-1-(4-{4-chloro-2,3,7,10-tetraazatricyclo[7.4.0.0^2,6]trideca-1(9),3,5,7-tetraen-10-yl}phenyl)-2,2,2-trifluoroethyl]-N-methylthiane-4-carboxamide] | 91 nM | 146 nM |
| CN(C(=O)C1CCS(=O)(=O)CC1)[C@@H](c1ccc(N2CC(C)(C)c3c2cnc2cc(Cl)nn32)cc1)C(F)(F)F [CPD0019494, N-[(1S)-1-(4-{11-chloro-3,3-dimethyl-1,5,8,12-tetraazatricyclo[7.3.0.0^2,6]dodeca-2(6),7,9,11-tetraen-5-yl}phenyl)-2,2,2-trifluoroethyl]-N-methyl-1,1-dioxo-1λ^6-thiane-4-carboxamide] | 25 nM | 59 nM |
| COC(C)c1c(Nc2ccc([C@H](N(C)C(=O)C3CCS(=O)(=O)CC3)C(F)(F)F)cc2)cnc2ccc(Cl)nc12 (stereo partly drawn) [CPD0019496, N-[(1S)-1-(4-{[6-chloro-4-(1-methoxyethyl)-1,5-naphthyridin-3-yl]amino}phenyl)-2,2,2-trifluoroethyl]-N-methyl-1,1-dioxo-1λ^6-thiane-4-carboxamide] | 112 nM | 22 nM |
| COC(C)c1c(Nc2ccc([C@H](N(C)C(=O)C3CCS(=O)(=O)CC3)C(F)(F)F)cn2)cnc2ccc(Cl)nc12 (stereo partly drawn) [CPD0019499, N-[(1S)-1-(6-{[6-chloro-4-(1-methoxyethyl)-1,5-naphthyridin-3-yl]amino}pyridin-3-yl)-2,2,2-trifluoroethyl]-N-methyl-1,1-dioxo-1λ^6-thiane-4-carboxamide] | 80 nM | 190 nM |
| COc1cc2ncc3c(n2n1)CCCN3c1ccc([C@H](N(C)C(=O)C2CCS(=O)(=O)CC2)C(F)(F)F)cc1 [CPD0019576, N-methyl-1,1-dioxo-N-[(1S)-2,2,2-trifluoro-1-(4-{4-methoxy-2,3,7,10-tetraazatricyclo[7.4.0.0^2,6]trideca-1(9),3,5,7-tetraen-10-yl}phenyl)ethyl]-1λ^6-thiane-4-carboxamide] | 313 nM | 1250 nM |
| CN(C(=O)C1CCS(=O)(=O)CC1)[C@@H](c1ccc(N2CCC(C)(C)c3c2cnc2cc(Cl)nn32)cc1)C(F)(F)F [CPD0019589, N-[(1S)-1-(4-{4-chloro-13,13-dimethyl-2,3,7,10-tetraazatricyclo[7.4.0.0^2,6]trideca-1(9),3,5,7-tetraen-10-yl}phenyl)-2,2,2-trifluoroethyl]-N-methyl-1,1-dioxo-1λ^6-thiane-4-carboxamide] | 38 nM | 32 nM |
| COc1ccccc1CC(=O)N(C)[C@@H](c1ccc(N2CCCc3c2cnc2cc(Cl)nn32)cc1)C(F)(F)F [CPD0021561, N-[(1S)-1-(4-{4-chloro-2,3,7,10-tetraazatricyclo[7.4.0.0^2,6]trideca-1(9),3,5,7-tetraen-10-yl}phenyl)-2,2,2-trifluoroethyl]-2-(2-methoxyphenyl)-N-methylacetamide] | 63 nM | 900 nM |
| CN(C(=O)C1CCS(=O)(=O)CC1)[C@@H](c1ccc(N2CCC(C)(C)c3c2cnc2cc(Cl)nn32)nc1)C(F)(F)F [CPD0021562, N-[(1S)-1-(6-{4-chloro-13,13-dimethyl-2,3,7,10-tetraazatricyclo[7.4.0.0^2,6]trideca-1(9),3,5,7-tetraen-10-yl}pyridin-3-yl)-2,2,2-trifluoroethyl]-N-methyl-1,1-dioxo-1λ^6-thiane-4-carboxamide] | 80 nM | 103 nM |
| CN(C(=O)C1CC(O)C1)[C@@H](c1ccc(N2CCCc3c2cnc2cc(Cl)nn32)cc1)C(F)(F)F (stereo partly drawn) [CPD0021565, N-[(1S)-1-(4-{4-chloro-2,3,7,10-tetraazatricyclo[7.4.0.0^2,6]trideca-1(9),3,5,7-tetraen-10-yl}phenyl)-2,2,2-trifluoroethyl]-3-hydroxy-N-methylcyclobutane-1-carboxamide] | 84 nM | 86 nM |
| CN(C(=O)C1CCOC1)[C@@H](c1ccc(N2CCCc3c2cnc2cc(Cl)nn32)cc1)C(F)(F)F (stereo partly drawn) [CPD0021568, N-[(1S)-1-(4-{4-chloro-2,3,7,10-tetraazatricyclo[7.4.0.0^2,6]trideca-1(9),3,5,7-tetraen-10-yl}phenyl)-2,2,2-trifluoroethyl]-N-methyloxolane-3-carboxamide] | 169 nM | 143 nM |
| CN(C(=O)C1CCCCO1)[C@@H](c1ccc(N2CCCc3c2cnc2cc(Cl)nn32)cc1)C(F)(F)F (stereo partly drawn) [CPD0021569, N-[(1S)-1-(4-{4-chloro-2,3,7,10-tetraazatricyclo[7.4.0.0^2,6]trideca-1(9),3,5,7-tetraen-10-yl}phenyl)-2,2,2-trifluoroethyl]-N-methyloxane-2-carboxamide] | 211 nM | 325 nM |
| CN(C(=O)C1CCCO1)[C@@H](c1ccc(N2CCCc3c2cnc2cc(Cl)nn32)cc1)C(F)(F)F (stereo partly drawn) [CPD0021570, N-[(1S)-1-(4-{4-chloro-2,3,7,10-tetraazatricyclo[7.4.0.0^2,6]trideca-1(9),3,5,7-tetraen-10-yl}phenyl)-2,2,2-trifluoroethyl]-N-methyloxolane-2-carboxamide] | 147 nM | 142 nM |
| CN(C(=O)C1CCCS(=O)(=O)C1)[C@@H](c1ccc(N2CCCc3c2cnc2cc(Cl)nn32)cc1)C(F)(F)F (stereo partly drawn) [CPD0021571, N-[(1S)-1-(4-{4-chloro-2,3,7,10-tetraazatricyclo[7.4.0.0^2,6]trideca-1(9),3,5,7-tetraen-10-yl}phenyl)-2,2,2-trifluoroethyl]-N-methyl-1,1-dioxo-1λ^6-thiane-3-carboxamide] | 247 nM | 332 nM |
| CN(C(=O)C1CCCOC1)[C@@H](c1ccc(N2CCCc3c2cnc2cc(Cl)nn32)cc1)C(F)(F)F (stereo partly drawn) [CPD0021572, N-[(1S)-1-(4-{4-chloro-2,3,7,10-tetraazatricyclo[7.4.0.0^2,6]trideca-1(9),3,5,7-tetraen-10-yl}phenyl)-2,2,2-trifluoroethyl]-N-methyloxane-3-carboxamide] | 166 nM | 193 nM |
| CN(C(=O)C1CCS(=O)(=O)C1)[C@@H](c1ccc(N2CCCc3c2cnc2cc(Cl)nn32)cc1)C(F)(F)F (stereo partly drawn) [CPD0021573] | 131 nM | 85 nM |
| CN(C(=O)C1CCOCC1)[C@@H](c1ccc(N2CCCc3c2cnc2cc(Cl)nn32)cc1)C(F)(F)F [CPD0021574, N-[(1S)-1-(4-{4-chloro-2,3,7,10-tetraazatricyclo[7.4.0.0^2,6]trideca-1(9),3,5,7-tetraen-10-yl}phenyl)-2,2,2-trifluoroethyl]-N-methyloxane-4-carboxamide] | 123 nM | 121 nM |
| CN(C(=O)C1CS(=O)(=O)C1)[C@@H](c1ccc(N2CCCc3c2cnc2cc(Cl)nn32)cc1)C(F)(F)F [CPD0021575, N-[(1S)-1-(4-{4-chloro-2,3,7,10-tetraazatricyclo[7.4.0.0^2,6]trideca-1(9),3,5,7-tetraen-10-yl}phenyl)-2,2,2-trifluoroethyl]-N-methyl-1,1-dioxo-1λ^6-thietane-3-carboxamide] | 123 nM | 128 nM |
| CCC(O)C(=O)N(C)[C@@H](c1ccc(N2CCCc3c2cnc2cc(Cl)nn32)cc1)C(F)(F)F (stereo partly drawn) [CPD0021576, N-[(1S)-1-(4-{4-chloro-2,3,7,10-tetraazatricyclo[7.4.0.0^2,6]trideca-1(9),3,5,7-tetraen-10-yl}phenyl)-2,2,2-trifluoroethyl]-2-hydroxy-N-methylbutanamide] | 146 nM | 333 nM |
| CN([C@@H](c1ccc(N2CCCc3c2cnc2cc(Cl)nn32)cc1)C(F)(F)F)S(C)(=O)=O [CPD0021581, N-[(1S)-1-(4-{4-chloro-2,3,7,10-tetraazatricyclo[7.4.0.0^2,6]trideca-1(9),3,5,7-tetraen-10-yl}phenyl)-2,2,2-trifluoroethyl]-N-methylmethanesulfonamide] | 370 nM | 538 nM |
| COc1ccc2ncc(N(C)c3ccc([C@H](N(C)C(=O)C4CCS(=O)(=O)CC4)C(F)(F)F)cc3)cc2n1 [CPD0021585, N-methyl-1,1-dioxo-N-[(1S)-2,2,2-trifluoro-1-{4-[(6-methoxy-1,5-naphthyridin-3-yl)(methyl)amino]phenyl}ethyl]-1λ^6-thiane-4-carboxamide] | 863 nM | 1680 nM |
| CN([C@@H](c1ccc(N2CCCc3c2cnc2cc(Cl)nn32)cc1)C(F)(F)F)[S+]([O-])C(C)(C)C (stereo partly drawn) [CPD0021661] | 302 nM | 1470 nM |
